In PMC9144902, “Metal(II) Complexes of the Fluoroquinolone Fleroxacin: Synthesis, Characterization and Biological Profile” (Pharmaceutics, 2022):

Columns and labels:
[1] = target: T1, bovine serum albumin (BSA) (Bos taurus, UniProt P02769); experiment: Albumin binding by tryptophan fluorescence emission quenching; details: for K(BSA), BSA-binding constant / kq(BSA), BSA-quenching constant: BSA 3 μM; for K(BSA), BSA-binding constant: buffer pH 7.0, Scatchard equation; for kq(BSA), BSA-quenching constant: buffer pH 7.0, λexc 295 nm, Stern–Volmer, τ0 = 10^–8 s; for BSA fluorescence, % of the initial fluorescence intensity (I/Io): λem,max = 342 nm, final value of titration (Figure S11)
T1 construct: purchased
T1 sequence (P02769 25-607): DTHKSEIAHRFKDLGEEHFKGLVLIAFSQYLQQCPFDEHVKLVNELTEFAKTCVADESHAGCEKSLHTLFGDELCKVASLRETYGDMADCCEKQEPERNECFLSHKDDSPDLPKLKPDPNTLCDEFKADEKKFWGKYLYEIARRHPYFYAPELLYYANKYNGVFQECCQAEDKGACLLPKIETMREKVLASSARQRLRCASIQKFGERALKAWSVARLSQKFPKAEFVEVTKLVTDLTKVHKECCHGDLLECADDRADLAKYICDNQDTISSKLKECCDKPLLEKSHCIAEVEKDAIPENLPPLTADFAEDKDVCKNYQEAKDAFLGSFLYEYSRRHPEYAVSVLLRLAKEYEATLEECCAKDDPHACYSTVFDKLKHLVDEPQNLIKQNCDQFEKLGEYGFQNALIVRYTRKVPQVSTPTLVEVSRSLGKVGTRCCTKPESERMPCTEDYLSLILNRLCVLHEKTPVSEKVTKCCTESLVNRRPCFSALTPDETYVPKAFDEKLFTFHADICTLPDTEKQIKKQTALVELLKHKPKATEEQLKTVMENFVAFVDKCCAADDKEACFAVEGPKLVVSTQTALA
Procedure, shortened: (§1)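 Compound binding to serum albumin monitored by quenching of albumin tryptophan fluorescence emission. Quenching constants (kq) derived from Stern–Volmer equation; binding constants (K) from Scatchard equation.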

[2] = target: T2, human serum albumin (HSA) (Homo sapiens, UniProt P02768); experiment: as above; details: for K(HSA), HSA-binding constant / kq(HSA), HSA-quenching constant: HSA 3 μM; for K(HSA), HSA-binding constant: buffer pH 7.0, Scatchard equation; for kq(HSA), HSA-quenching constant: buffer pH 7.0, λexc 295 nm, Stern–Volmer, τ0 = 10^–8 s; for HSA fluorescence, % of the initial fluorescence intensity (I/Io): λem,max = 351 nm, final value of titration (Figure S10)
T2 construct: purchased
T2 sequence (P02768 25-609): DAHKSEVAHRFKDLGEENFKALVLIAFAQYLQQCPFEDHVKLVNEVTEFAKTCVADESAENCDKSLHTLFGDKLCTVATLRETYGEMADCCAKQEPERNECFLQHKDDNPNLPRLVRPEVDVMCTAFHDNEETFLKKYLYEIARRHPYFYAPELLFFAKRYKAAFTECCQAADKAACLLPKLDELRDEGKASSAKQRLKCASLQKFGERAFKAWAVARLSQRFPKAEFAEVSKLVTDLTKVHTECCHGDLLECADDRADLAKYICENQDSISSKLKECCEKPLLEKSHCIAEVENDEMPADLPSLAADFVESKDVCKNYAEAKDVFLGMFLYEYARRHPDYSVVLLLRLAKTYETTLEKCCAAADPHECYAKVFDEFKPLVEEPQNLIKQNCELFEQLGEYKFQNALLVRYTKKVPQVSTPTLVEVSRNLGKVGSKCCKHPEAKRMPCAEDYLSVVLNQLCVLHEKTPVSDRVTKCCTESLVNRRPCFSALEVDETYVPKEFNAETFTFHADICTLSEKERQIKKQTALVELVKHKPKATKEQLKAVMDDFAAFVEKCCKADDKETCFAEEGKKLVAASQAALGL
Procedure, shortened: as §1

[3] = system: Xanthomonas campestris ATCC 1395; experiment: Antimicrobial activity, MIC determination; format: cell-based; details: X. campestris; 24-h incubation, 28°C
Procedure, shortened: (§2)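 Broth microdilution MIC in Mueller–Hinton broth, inoculum 0.5 McFarland, compounds added from DMSO working solutions at 2:98. After 24 h (37°C; X. campestris at 28°C), MIC is the lowest concentration inhibiting visible growth, by OD600 turbidity, in at least two of triplicate cultures.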

[4] = system: Bacillus subtilis ATCC 6633; experiment: Antimicrobial activity, MIC determination; format: cell-based; details: B. subtilis; 24-h incubation, 37°C
Procedure, shortened: as §2

[5] = system: Staphylococcus aureus ATCC 6538; experiment: Antimicrobial activity, MIC determination; format: cell-based; details: S. aureus; 24-h incubation, 37°C

Structure (SMILES): CN1CCN(c2c(F)cc3c(=O)c(C(=O)[O-])cn(CCF)c3c2F)CC1.CN1CCN(c2c(F)cc3c(=O)c(C(=O)[O-])cn(CCF)c3c2F)CC1.[Mn+2].c1cnc2c(c1)ccc1cccnc12 [complex 11, [Mn(flrx)2(phen)]]
- K(BSA), BSA-binding constant [1]: 1.09(±0.03) × 10^5 M^−1
- kq(BSA), BSA-quenching constant [1]: 1.65(±0.04) × 10^13 M^−1s^−1
- BSA fluorescence, % of the initial fluorescence intensity (I/Io) [1]: 25.2%
- K(HSA), HSA-binding constant [2]: 1.01(±0.04) × 10^5 M^−1
- kq(HSA), HSA-quenching constant [2]: 1.03(±0.01) × 10^13 M^−1s^−1
- HSA fluorescence, % of the initial fluorescence intensity (I/Io) [2]: 34.2%
- MIC [3]: 16 µg/mL
- MIC (values in parentheses) [3]: 16.4 µM
- MIC [4]: 8 µg/mL
- MIC (values in parentheses) [4]: 8.2 µM
- MIC [5]: 8 µg/mL
- MIC (values in parentheses) [5]: 8.2 µM

Structure (SMILES): CN1CCN(c2c(F)cc3c(=O)c(C(=O)[O-])cn(CCF)c3c2F)CC1.CN1CCN(c2c(F)cc3c(=O)c(C(=O)[O-])cn(CCF)c3c2F)CC1.CO.CO.[Co+2] [complex 4, [Co(flrx)2(MeOH)2]]
- K(BSA), BSA-binding constant [1]: 1.02(±0.05) × 10^5 M^−1
- kq(BSA), BSA-quenching constant [1]: 1.34(±0.03) × 10^13 M^−1s^−1
- BSA fluorescence, % of the initial fluorescence intensity (I/Io) [1]: 26.3%
- K(HSA), HSA-binding constant [2]: 7.68(±0.33) × 10^4 M^−1
- kq(HSA), HSA-quenching constant [2]: 6.05(±0.13) × 10^12 M^−1s^−1
- HSA fluorescence, % of the initial fluorescence intensity (I/Io) [2]: 44.3%
- MIC [3]: 16 µg/mL
- MIC (values in parentheses) [3]: 18.6 µM
- MIC [4]: 8 µg/mL
- MIC (values in parentheses) [4]: 9.3 µM
- MIC [5]: 4 µg/mL
- MIC (values in parentheses) [5]: 4.6 µM

Structure (SMILES): CN1CCN(c2c(F)cc3c(=O)c(C(=O)[O-])cn(CCF)c3c2F)CC1.CN1CCN(c2c(F)cc3c(=O)c(C(=O)[O-])cn(CCF)c3c2F)CC1.[Mn+2].c1ccc(Nc2ccccn2)nc1 [complex 10, [Mn(flrx)2(bipyam)]]
- K(BSA), BSA-binding constant [1]: 6.46(±0.39) × 10^4 M^−1
- kq(BSA), BSA-quenching constant [1]: 1.20(±0.04) × 10^13 M^−1s^−1
- BSA fluorescence, % of the initial fluorescence intensity (I/Io) [1]: 31.6%
- K(HSA), HSA-binding constant [2]: 8.40(±0.58) × 10^4 M^−1
- kq(HSA), HSA-quenching constant [2]: 8.01(±0.23) × 10^12 M^−1s^−1
- HSA fluorescence, % of the initial fluorescence intensity (I/Io) [2]: 47.4%
- MIC [3]: > 32 µg/mL
- MIC (values in parentheses) [3]: > 33.2 µM
- MIC [4]: 16 µg/mL
- MIC (values in parentheses) [4]: 16.6 µM
- MIC [5]: 16 µg/mL
- MIC (values in parentheses) [5]: 16.6 µM

Structure (SMILES): CN1CCN(c2c(F)cc3c(=O)c(C(=O)[O-])cn(CCF)c3c2F)CC1.CN1CCN(c2c(F)cc3c(=O)c(C(=O)[O-])cn(CCF)c3c2F)CC1.[Co+2].c1cnc2c(c1)ccc1cccnc12 [complex 17, [Co(flrx)2(phen)]]
- K(BSA), BSA-binding constant [1]: 1.44(±0.03) × 10^5 M^−1
- kq(BSA), BSA-quenching constant [1]: 1.50(±0.03) × 10^13 M^−1s^−1
- BSA fluorescence, % of the initial fluorescence intensity (I/Io) [1]: 26.3%
- K(HSA), HSA-binding constant [2]: 5.18(±0.32) × 10^4 M^−1
- kq(HSA), HSA-quenching constant [2]: 6.49(±0.21) × 10^12 M^−1s^−1
- HSA fluorescence, % of the initial fluorescence intensity (I/Io) [2]: 44.5%
- MIC [3]: 16 µg/mL
- MIC (values in parentheses) [3]: 16.0 µM
- MIC [4]: 8 µg/mL
- MIC (values in parentheses) [4]: 8.0 µM
- MIC [5]: 8 µg/mL
- MIC (values in parentheses) [5]: 8.0 µM
